# Experimental data from PMC12524617, “Recombinant Production and Characterization of a Novel α-L-Fucosidase from Bifidobacterium castoris” (International Journal of Molecular Sciences, 2025).
# Target: T1, commercial T. maritima α-L-fucosidase (Thermotoga maritima, UniProt Q9WYE2)
# T1 construct: gene TM_0306; commercial enzyme from Megazyme
# T1 sequence (Q9WYE2 1-449): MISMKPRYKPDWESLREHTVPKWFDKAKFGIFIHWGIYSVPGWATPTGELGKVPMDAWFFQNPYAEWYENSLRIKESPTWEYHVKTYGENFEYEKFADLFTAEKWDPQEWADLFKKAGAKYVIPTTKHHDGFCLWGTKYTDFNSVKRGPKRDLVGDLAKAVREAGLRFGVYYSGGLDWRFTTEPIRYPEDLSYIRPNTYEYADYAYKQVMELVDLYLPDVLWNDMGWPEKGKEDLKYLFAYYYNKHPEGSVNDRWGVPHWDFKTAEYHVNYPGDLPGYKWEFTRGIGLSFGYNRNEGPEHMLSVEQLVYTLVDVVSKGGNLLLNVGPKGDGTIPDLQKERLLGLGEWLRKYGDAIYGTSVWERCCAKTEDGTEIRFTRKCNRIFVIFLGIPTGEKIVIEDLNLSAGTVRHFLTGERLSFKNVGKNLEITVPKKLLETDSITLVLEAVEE
# Assay: p-nitrophenolate release, absorbance at […] nm
# Type: biochemical
# Conditions: positive control enzyme, 1 μg, same conditions, pH 3.0-8.0, 24-42 °C; activity only in figure
smiles,measurement,value
"C[C@@H]1O[C@@H](Oc2ccc([N+](=O)[O-])cc2)[C@@H](O)[C@H](O)[C@@H]1O [pNP-Fuc, 4-Nitrophenyl-α-L-fucopyranoside]","p-nitrophenolate release, absorbance at 405 nm",-derived α-L-fucosidase was used as a positive control under the same conditions
